Series [1] concerns the target T1, rALRase (recombinant alanine racemase of Lactobacillus sakei ZH-2) (Latilactobacillus sakei, UniProt Q38V64, T117A).
T1 construct: gene alr; pCold I in E. coli BL21, His-tag purified, tag removed with Factor Xa
Kind of series: racemase activity with and without PLP, D-amino acid oxidase/LDH-coupled. The series is classed as biochemical. The conditions noted are these: L-alanine substrate; 10 mM PLP in the standard assay, pH 9.0.

Substrate in the series “purified protein”: C[C@H](N)C(=O)O
Kind of series: purified protein. The conditions noted are these: L-alanine 0.1-50 mM, L to D direction, standard assay 50 mM CHES-NaOH pH 9.0, 10 mM PLP, 37 °C.

By Km is commonly meant the concentration of substrate that gives half-maximal velocity.

For `Cc1ncc(COP(=O)(O)O)c(C=O)c1O` [pyridoxal phosphate], the “fold activity with PLP versus without” value in series [1] is reported as 1.5–2 times.

B1: rALRase (recombinant alanine racemase of Lactobacillus sakei ZH-2) (Latilactobacillus sakei subsp. sakei 23K; T117A) (protein)
chain: MTVGYLRPTRILVDQNAIYENIQNELKHLEGTDTVIFPVLKANAYGHGLIPVAEAAQAAGAAGFCVALLDEALALRRANFTEPILVLGITQPSEIELAAANQISLTVGSLEWLQEAAAIAQQVPYLHPVPIHLSIDSGMGRIGMRDEAELLAAYTFIKAHSDYFDFEGVFTHFATADDPDDTYFKEQSARFNQLMTALPERPRFVHVSNSATSLWHAACNGNIIRMGISLYGLNPSGNAIPDLPYPLKQALGIESELVFVKQVAAGTKIGYGATYEASEGEWIGTIPMGYADGWLRRMQGSTVLVDGQRCEIVGRICMDQMMIRLPKRYPVGTKVVFVGKSGDDEITLQEVADYADTIHYEIICDLSDRIPRVYTGLNEH
Consider B1, for which the Km in “purified protein” amounted to 1320 µM.

The values are drawn from publication PMC10420772, “Characteristics of alanine racemase in Lactobacillus sakei ZH‐2 strain” (Food Science & Nutrition, 2023).
